These results are taken from paper PMC9064041 (Journal of medicinal chemistry, 2020).

The structures appear in SMILES notation. In brackets after ≈: the same amount, converted by molar mass. Several values for one entry are separate records, joined by “and”; a condition that tells them apart may be missing. Equal entries are not always repeated.

In data set [1] the test system is Bacteroides fragilis HM-711. In words: MIC against normal gut microbiota. The settings on record: HM711. It counts as cell-based.
Data set [2] has as its system C. difficile ATCC 43255. The data set is described as follows: MIC, broth microdilution, clinical isolate. The format is cell-based. The settings on record: Clostridioides difficile, ATCC43255.
The subject of data set [3] is C. difficile NR-32891 (P13). In words: MIC, broth microdilution, clinical isolate. The format is cell-based. The settings on record: Clostridioides difficile. (In broth dilution the organism is exposed to a series of concentrations in liquid medium.)
Data set [4] deals with Lactobacillus gasseri HM-400. In words: MIC against normal gut microbiota. It counts as cell-based. As to conditions: HM400.
Data set [5] deals with C. difficile NR-32904 (P30). In words: MIC, broth microdilution, clinical isolate. It counts as cell-based. As to conditions: Clostridioides difficile.
The subject of data set [6] is Lactobacillus crispatus HM-103. The data set is described as follows: MIC against normal gut microbiota. The format is cell-based. The settings on record: HM103.
Data set [7] deals with Bacteroides fragilis HM-709. The data set is described as follows: MIC against normal gut microbiota. The format is cell-based. The settings on record: HM709.
The test system of data set [8] is Lactobacillus crispatus HM-371. In words: MIC against normal gut microbiota. The format is cell-based. The settings on record: HM371.
Data set [9] concerns E. coli JW55031 (TolC Mutant). The data set is described as follows: MIC, broth microdilution. It counts as cell-based. As to conditions: Escherichia coli.
In data set [10] the test system is E. coli BW25113 (wild-type strain). The data set is described as follows: MIC, broth microdilution. The format is cell-based, Escherichia coli. As to conditions: for MIC: Escherichia coli, BW25113.
Data set [11] concerns human colorectal cells (Caco-2). The data set is described as follows: In vitro cytotoxicity, MTS assay. The format is cell-based. As to conditions: 2 hours incubation with compound.
Another data set has as its system Lactobacillus strains. In words: MIC over Lactobacillus strains. It counts as cell-based, Lactobacillus spp. As to conditions: read-out: MIC against Lactobacillus strains.
The test system of data set [12] is C. difficile ATCC 43255. In words: Frequency of spontaneous mutation. As to conditions: for isolation of resistant mutants: high inoculum.
Data set [13] has as its system C. difficile NR-13432 (isolate 6). The data set is described as follows: MIC, broth microdilution, clinical isolate. It counts as cell-based. The settings on record: Clostridioides difficile.
For the next data set, the system named is Bacteroides spp. The data set is described as follows: MIC over Bacteroides species. The format is cell-based. The settings on record: read-out: MIC against species of Bacteroides.
For the next data set, the system named is Caco-2 bilayers. The data set is described as follows: Caco-2 bidirectional permeability assay. It counts as in vitro ADME, human. Background: Caco-2 monolayers are a common model of the intestinal barrier.
The next data set relates to E. faecium ATCC 700221. In words: MIC, broth microdilution. It counts as cell-based. As to conditions: Enterococcus faecium, ATCC700221.
Another data set relates to E. faecalis ATCC 51299. In words: MIC, broth microdilution. The format is cell-based. As to conditions: Enterococcus faecalis, ATCC51299.
The subject of a further data set is VRE clinical isolates. In words: MIC range over VRE clinical isolates. The format is cell-based, vancomycin-resistant enterococci. The settings on record: Enterococcus, read-out: MICs ranging over VRE clinical isolates.
In data set [14] the test system is C. difficile NR-13435 (isolate 9). In words: MIC, broth microdilution, clinical isolate. The format is cell-based. As to conditions: Clostridioides difficile.
Data set [15] has as its system C. difficile NR-32895 (P19). In words: MIC, broth microdilution, clinical isolate. As to conditions: Clostridioides difficile. The format is cell-based.
Data set [16] deals with C. difficile ATCC BAA 1801. The data set is described as follows: MIC, broth microdilution, initial screening. The format is cell-based, Clostridioides difficile. The settings on record: for MIC: Clostridioides difficile, BAA1801, 48 h.
In data set [17] the test system is C. difficile infection (CDI). As to conditions: cited from earlier work.
For data set [18] the following is noted: cited from earlier work.
Data set [19] has as its system C. difficile NR-32883 (P2). The data set is described as follows: MIC, broth microdilution, clinical isolate. The format is cell-based. As to conditions: Clostridioides difficile.
[20] abbreviates: 15 × MIC, inoculum ~10^9 CFU/mL.
Where [21] appears, read: 20 × MIC, inoculum ~10^9 CFU/mL.
The mark [22] stands for this setting: C. difficile ATCC BAA 1801, anaerobic, 48 hours.

Take `CCc1c(Cl)c(O)c(Cl)c(O)c1C(=O)O[C@H]1[C@H](O)[C@H](OC)[C@H](OC/C2=C\C=C\C[C@H](O)/C(C)=C/[C@H](CC)[C@@H](O[C@@H]3OC(C)(C)[C@@H](OC(=O)C(C)C)[C@H](O)[C@@H]3O)/C(C)=C/C(C)=C/C[C@@H]([C@@H](C)O)OC2=O)O[C@@H]1C` [Fidaxomicin]: the MIC is > 64 µg/mL and > 60.5 µM in [1]; 0.015 µg/mL (≈ 0.0142 µM) against C. difficile ATCC 43255 [2]; 0.015 µg/mL (≈ 0.0142 µM) in data set [3]; over 64 µg/mL in [4]; 0.015 µg/mL (≈ 0.0142 µM) in data set [5]; > 64 µg/mL and > 60.5 µM in [6]. Further, the MIC in data set [7] and in data set [8] was over 64 µg/mL in each case.
Turning to `CNC(C)C1CCC(N)C(OC2C(N)CC(N)C(OC3OCC(C)(O)C(NC)C3O)C2O)O1` (centres unmarked) [Gentamicin], the MIC is 0.25 µg/mL and 0.52 µM in [9]; 0.25 µg/mL and 0.52 µM in [10].
Regarding `O=C(Nc1nnc(-c2cc(Cl)cc(Cl)c2)o1)c1ccc(SC(F)(F)F)cc1` [HSGN-218, N-(5-(3,5-Dichlorophenyl)-1,3,4-oxadiazol-2-yl)-4-((trifluoromethyl)thio)benzamide], the “concentration highly tolerable to Caco-2 cells” value in [11] was “higher than 64 μg/mL”. In addition, the MIC in data set [1] was 2 µg/mL (≈ 4.61 µM); in the data set on C. difficile ATCC 43255 [2] it was 0.015 µg/mL (≈ 0.0345 µM); with Lactobacillus strains it was 16 µg/mL (≈ 36.8 µM); in data set [13], 0.03 µg/mL (≈ 0.0691 µM); with Bacteroides spp, 1 µg/mL to 2 µg/mL and 2.3 µM to 4.6 µM; in data set [9] it was 4 µg/mL (≈ 9.21 µM). The MIC against E. faecium ATCC 700221 was 0.125 µg/mL (≈ 0.288 µM); in the data set with E. faecalis ATCC 51299, 0.06 µg/mL (≈ 0.138 µM); in the data set with VRE clinical isolates, 0.06 µg/mL to 0.125 µg/mL and 0.14 µM to 0.29 µM; in data set [4], 16 µg/mL (≈ 36.8 µM); in [6] it was 16 µg/mL (≈ 36.8 µM); in [7] it was 1 µg/mL (≈ 2.3 µM). Further, the values for the MIC in data set [8], in data set [14] and in data set [10] were 16 µg/mL (≈ 36.8 µM), 0.003 µg/mL (≈ 0.00691 µM) and over 16 µg/mL, respectively. For the same compound, the “isolation of resistant mutants” value in the data set on C. difficile ATCC 43255 [12] (15 × MIC and 20 × MIC) is reported as “No resistant mutants were isolated”. Besides, the Frequency of mutation in the data set with C. difficile ATCC 43255 [12] (setting [20]) and in the data set with C. difficile ATCC 43255 [12] (setting [21]) was <1.1× 10^−9 each time. Besides, the “Notes (permeability class)” value with Caco-2 bilayers was “Low Permeability”. Moreover, the “activity against E. coli BW25113 in words” value in [10] (wild-type strain) was “inactive”.
For the compound `CC(=O)NC[C@H]1CN(c2ccc(N3CCOCC3)c(F)c2)C(=O)O1` [Linezolid], the MIC in [9] was 16 µg/mL (≈ 47.4 µM); with E. faecium ATCC 700221, 1 µg/mL (≈ 2.96 µM); against E. faecalis ATCC 51299, 1 µg/mL (≈ 2.96 µM); in data set [10] it was > 64 µg/mL and > 190 µM.
In the case of `Cc1ncc([N+](=O)[O-])n1CCO` [Metronidazole], the MIC in data set [1] is at most 1 µg/mL; against C. difficile ATCC 43255 [2], 0.25 µg/mL (≈ 1.46 µM); in data set [13], 0.25 µg/mL (≈ 1.46 µM); in data set [15], 0.25 µg/mL (≈ 1.46 µM); against E. faecium ATCC 700221 it was over 64 µg/mL; in the data set with E. faecalis ATCC 51299, over 64 µg/mL. In addition, the MIC in data set [3] was 0.125 µg/mL (≈ 0.73 µM); in data set [4], over 64 µg/mL; in [5] it was 0.25 µg/mL (≈ 1.46 µM); in [6], > 64 µg/mL and > 374 µM; in data set [16] (setting [22]), 0.25 µg/mL (≈ 1.46 µM); in [7], 2 µg/mL (≈ 11.7 µM). The MIC in [8] was over 64 µg/mL; in data set [14], 0.125 µg/mL (≈ 0.73 µM); in [19], 0.125 µg/mL (≈ 0.73 µM). Moreover, in [17], the treatment failure is 22%. Besides, the “bioavailable (absorption from the intestinal tract)” value in [18] was 100%.
`CC(C)NCC(O)COc1cccc2ccccc12` (centres unmarked) [Propranolol]: the “Notes (permeability class)” value in the data set on Caco-2 bilayers is recorded as “High Permeability Control”.
Same read-out and setting: the entry for `CNC(=C[N+](=O)[O-])NCCSCc1ccc(CN(C)C)o1` [Ranitidine] is “Low Permeability Control”.
Regarding `CN[C@H](CC(C)C)C(=O)N[C@H]1C(=O)N[C@@H](CC(N)=O)C(=O)N[C@H]2C(=O)N[C@H]3C(=O)N[C@H](C(=O)N[C@H](C(=O)O)c4cc(O)cc(O)c4-c4cc3ccc4O)[C@H](O)c3ccc(c(Cl)c3)Oc3cc2cc(c3O[C@@H]2O[C@H](CO)[C@@H](O)[C@H](O)[C@H]2O[C@H]2C[C@](C)(N)[C@H](O)[C@H](C)O2)Oc2ccc(cc2Cl)[C@H]1O` [Vancomycin], the MIC in data set [1] is 64 µg/mL (≈ 44.2 µM); against C. difficile ATCC 43255 [2], 1 µg/mL (≈ 0.69 µM); in the data set with Lactobacillus strains, 1 µg/mL to 2 µg/mL and 0.7 µM to 1.4 µM; in [13] it was 0.25 µg/mL (≈ 0.173 µM); in the data set with Bacteroides spp, 32 µg/mL to 64 µg/mL and 22.1 µM to 44.2 µM; in data set [9], over 64 µg/mL. Further, the MIC in [15] is 1 µg/mL (≈ 0.69 µM); against E. faecium ATCC 700221 it was 32 µg/mL (≈ 22.1 µM); against E. faecalis ATCC 51299 it was over 64 µg/mL; in data set [3], 0.5 µg/mL (≈ 0.345 µM); in [4], ≤ 1 µg/mL and ≤ 0.7 µM; in [5] it was 1 µg/mL (≈ 0.69 µM). Further, the MIC in data set [6] was found to be 2 µg/mL (≈ 1.38 µM); in data set [16], 1 µg/mL (≈ 0.69 µM); in data set [7], 32 µg/mL (≈ 22.1 µM); in [8] it was 2 µg/mL (≈ 1.38 µM); in data set [14], 1 µg/mL (≈ 0.69 µM); in data set [19] it was 0.5 µg/mL (≈ 0.345 µM). In data set [10], this compound registered an MIC of over 64 µg/mL. Besides, the “Frequency of mutation” value in the data set with C. difficile ATCC 43255 [12] (15 × MIC and 20 × MIC) is < 1.1× 10^−9; in the data set on C. difficile ATCC 43255 [12] (setting [20]), <1.1× 10^−9; with C. difficile ATCC 43255 [12] (setting [21]) it was <1.1× 10^−9. For the same compound, the “isolation of resistant mutants” value in the data set with C. difficile ATCC 43255 [12] (15 × MIC and 20 × MIC) is recorded as “no resistant mutants were isolated”. Also, the treatment failure in data set [17] is on record as 14%.
In the case of `O=C(Nc1nnc(-c2ccccn2)o1)c1ccc(SC(F)(F)F)cc1` [compound 17, N-(5-(Pyridin-2-yl)-1,3,4-oxadiazol-2-yl)-4-((trifluoromethyl)thio)benzamide], the “activity against C. difficile ATCC BAA 1801 in words” value in [16] was “only moderate activity”. Besides, the MIC in [16] (setting [22]) came out at 8 µg/mL (≈ 21.8 µM).
